From publication PMC12622015 (bioRxiv, 2025) come the findings set out here.

A word on the IC50: it is the concentration that gives 50% inhibition. Low values mean greater potency in that assay, high ones weaker potency in that assay.

This assay has as its target T1, IRAK4 (Homo sapiens, UniProt Q9NWZ3).
T1 sequence (Q9NWZ3 1-460): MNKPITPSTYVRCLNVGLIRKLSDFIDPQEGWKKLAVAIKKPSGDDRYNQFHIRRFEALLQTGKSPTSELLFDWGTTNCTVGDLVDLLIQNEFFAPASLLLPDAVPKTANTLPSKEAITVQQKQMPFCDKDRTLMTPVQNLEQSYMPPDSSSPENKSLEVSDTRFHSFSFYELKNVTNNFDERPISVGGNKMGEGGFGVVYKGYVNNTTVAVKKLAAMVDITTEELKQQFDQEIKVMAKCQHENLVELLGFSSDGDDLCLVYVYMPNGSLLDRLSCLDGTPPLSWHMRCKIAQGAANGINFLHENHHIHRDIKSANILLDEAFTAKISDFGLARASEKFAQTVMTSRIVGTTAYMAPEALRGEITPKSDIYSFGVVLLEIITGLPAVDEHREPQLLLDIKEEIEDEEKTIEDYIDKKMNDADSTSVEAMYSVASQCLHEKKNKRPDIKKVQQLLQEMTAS
Nature of the assay: HotSpot kinase assay. The assay is classed as biochemical.

In the case of `COc1cc(N2CCN(C(=O)CCCC(=O)Nc3cccc4c3CN(C3CCC(=O)NC3=O)C4=O)CC2)ccc1NC(=O)c1cccc(-c2cc[nH]n2)n1` (stereo not shown) [PSP-0119, N-(4-(4-(5-((2-(2,6-dioxopiperidin-3-yl)-1-oxoisoindolin-4-yl)amino) −5-oxopentanoyl)piperazin-1-yl)-2-methoxyphenyl)-6-(1H-pyrazol-3-yl)picolinamide], the IC50 was 2.83 nM. This counts as single-digit nanomolar.
